Results: PMC5897276, “External radiation exposure, excretion, and effective half-life in ^177Lu-PSMA-targeted therapies” (EJNMMI Research, 2018)
Marks after values point to notes of the source that are not given here.

What was measured:
[1] = Whole-body activity measurement with external gamma probe and analysis of excreted activity; format: in vivo, patients; settings: for Excreted activity Aex between given time point and previous time point, max / Excreted activity Aex between given time point and previous time point, mean / Excreted activity Aex between given time point and previous time point, min / Overall excreted activity as percentage of administered activity, max / Overall excreted activity as percentage of administered activity, mean / Overall excreted activity as percentage of administered activity, min: 25 patients (Department 2)
Description: The analysis of the excretion of unbound ^177Lu-PSMA ligands and lutetium-177 was performed indirectly by measuring the remaining activity within the body of the patients at different time points with an external gamma probe. This has been proven to be a fast, simple, and robust method to estimate the activity within the body of the patient. The difference compared with the expected activity that can be calculated directly by the physical decay of the administered activity is assumed to be equivalent to the excreted activity.
The measurements were carried out in Department 2, using a cohort of 25 patients (see Table 1). The whole-body activity was measured at 0 h (before voiding, reference) and approximately at 2, 4, 12, 24, 48, and 72 h after the administration of ^177Lu-PSMA-617.
The remaining activity AWB in the patient at the given time point ti was determined by the following equation:1 AWBti=CAti⋅CPti/CFP, where cA(ti) and cP(ti) are the count rates (compensated for the background) at the given time point for the anterior and posterior views respectively. CFP is a patient-specific calibration factor based on a baseline measurement of each patient, performed immediately after administration of ^177Lu-PSMA-617 and before the first voiding of the bladder. This factor is calculated according to the following equation:2 CFP=CA0⋅Cp0/AP, where AP is the administered activity. This factor represents the efficiency of the detector for the spatially distributed activity and intrinsically considers the self-attenuation of the γ photons by the body of the patient.
The excreted activity Aex at the time point ti was calculated as the difference of the whole-body activity at the previous time point ti − 1 (corrected for decay) and the whole-body activity at the time point ti. The whole extracted activity can then be calculated as a summation:3 Aex=∑j=1iAWBti−1e^−ln2/T1/2∙ti−ti−1−AWBti,
A 3″ × 3″-NaI (Tl) detector (Type 905-4) with multichannel analyzer and software (digiBASE, MAESTRO, Ortec, Oak Ridge, USA) was used as a measurement system. It was calibrated using americium-241, cobalt-57, cesium-137, and iodine-131 test sources, and regular quality checks were carried out. The shielded detector (collimator of 3 cm lead) was positioned 1 m above the floor, and the field of view covered the whole body of the patient. The energy window was set to 208 keV ± 27%, corresponding to approximately 3 × full width at half maximum of the energy resolution of the NaI (Tl) detector. The background was measured for 300 s without the presence of a patient. Patients were measured in anterior and posterior standing positions while holding arms close to the body at a distance of 2 m from the collimator surface. For all measurements, the acquisition time corrected for dead-time effects was set to 90 s. […] No further corrections (e.g., for pile-up or non-linearity) were applied. Statistical uncertainties of the count rate were below 1% for all measurements, as recommended by Hindorf et al.. Bi-exponential functions were fitted to the data, and the effective half-lives were calculated. The bi-exponential fit model was chosen after comparing the quality of fit of mono- and bi-exponential models using the Akaike criterion as described by Kletting et al..

[2] = Whole-body dose rate measurement at a distance of 2 m and calculation of effective half-life; format: in vivo, patients; settings: for Calculated effective half-life T1/2eff, max / Calculated effective half-life T1/2eff, mean / Calculated effective half-life T1/2eff, min: mono-exponential fit of dose rate
Description: The measurements and analyses were carried out with 50 patients from both departments as characterized in Table 1. All patients of Department 2 were released from the hospital 72 h p. i. for organizational reasons. Therefore, dose rate measurements were also available for ti = 72 h p. i.
In both departments, the dose rate monitor LB 123 D-H10 (Berthold Technologies, Bad Wildbad, Germany) was used, which is suitable for dose rate levels between 0.05 μSv/h and 10 mSv/h within an energy range from 30 keV to 1.3 MeV. The systems were officially calibrated, and regular quality checks were carried out. The patients were measured in the standing position from the anterior (DRA) and posterior (DRP) view at a distance of 2 m from the surface of the detector. The dose rate DR for different time points (see Table 1) was then calculated as the geometric mean of both measurements5 DRti=DRAti∙DRPti.
The data were fitted by a mono-exponential curve, and the effective half-life was calculated for the different time points: 24, 48, and 72 h (only from the data of Department 2). […] For all comparisons, the time point 48 h was chosen as the reference, because it is standard that the patients are released from the therapy ward after 48 h. Subsequently, Eq. 4 was used to determine the dose D to the public after the discharge of the patient for different time points of release (24, 48, and 72 h p. i.), substituting T1/2eff by T1/2ind (individual half-life of each patient), T1/2phys (physical half-life of ^177Lu), and T1/2max (maximum of the calculated effective half-life of the patient cohort) for different calculations. In addition, a correlation analysis (Spearman and Pearson) of the dose rate and administered activity was performed.

[3] = time point 24.2 ± 0.7 h (from 2 h/4 h and 24 h)
[4] = time point 67.7 ± 2.3 h (72 h; from 24, 48 and 72 h), 25 patients (Department 2)

## O=C([O-])CN1CCN(CC(=O)[O-])CCN(CC(=O)NCC2CCC(C(=O)N[C@@H](Cc3ccc4ccccc4c3)C(=O)NCCCC[C@H](NC(=O)N[C@@H](CCC(=O)O)C(=O)O)C(=O)O)CC2)CCN(CC(=O)[O-])CC1.[177Lu+3] (some centres unmarked) [^177Lu-PSMA-617]
[1]; 2 h p. i.
  Excreted activity Aex between given time point and previous time point, max: 2621 MBq
  Excreted activity Aex between given time point and previous time point, mean: 1718 MBq
  Excreted activity Aex between given time point and previous time point, min: 735 MBq
  Overall excreted activity as percentage of administered activity, max: 42%
  Overall excreted activity as percentage of administered activity, mean: 30%
  Overall excreted activity as percentage of administered activity, min: 13%
[1]; 4 h p. i.
  Excreted activity Aex between given time point and previous time point, max: 1526 MBq
  Excreted activity Aex between given time point and previous time point, mean: 1265 MBq
  Excreted activity Aex between given time point and previous time point, min: 1060 MBq
  Overall excreted activity as percentage of administered activity, max: 62%
  Overall excreted activity as percentage of administered activity, min: 30%
[1]; 12 h p. i.
  Excreted activity Aex between given time point and previous time point, max: 1323 MBq
  Excreted activity Aex between given time point and previous time point, mean: 1155 MBq
  Excreted activity Aex between given time point and previous time point, min: 1009 MBq
  Overall excreted activity as percentage of administered activity, max: 82%
  Overall excreted activity as percentage of administered activity, min: 48%
[1]; 24 h p. i.
  Excreted activity Aex between given time point and previous time point, max: 474 MBq
  Excreted activity Aex between given time point and previous time point, mean: 395 MBq
  Excreted activity Aex between given time point and previous time point, min: 318 MBq
  Overall excreted activity as percentage of administered activity, max: 87%
  Overall excreted activity as percentage of administered activity, mean: 76%
  Overall excreted activity as percentage of administered activity, min: 53%
[1]; 48 h p. i.
  Excreted activity Aex between given time point and previous time point, max: 265 MBq
  Excreted activity Aex between given time point and previous time point, mean: 219 MBq
  Excreted activity Aex between given time point and previous time point, min: 160 MBq
  Overall excreted activity as percentage of administered activity, max: 89%
  Overall excreted activity as percentage of administered activity, mean: 77%
  Overall excreted activity as percentage of administered activity, min: 50%
[1]; 72 h p. i.
  Excreted activity Aex between given time point and previous time point, max: 82 MBq
  Excreted activity Aex between given time point and previous time point, mean: 68 MBq
  Excreted activity Aex between given time point and previous time point, min: 50 MBq
  Overall excreted activity as percentage of administered activity, max: 89%
  Overall excreted activity as percentage of administered activity, mean: 78%
  Overall excreted activity as percentage of administered activity, min: 54%
[1]; in words
  Clearance of the unbound compound from the body: rapidly cleared from the body
[1]; of the administered 6.6 GBq, patient cohort 2
  Excreted activity over a period of 72 h (per therapy cycle and patient), average: approximately 4.8 GBq
[2]; [3]
  Calculated effective half-life T1/2eff, max: 73.5 h
  Calculated effective half-life T1/2eff, mean: 26.0 h
  Calculated effective half-life T1/2eff, min: 11.0 h
[2]; time point 45.7 ± 2.1 h (48 h; from 24 h and 48 h)
  Calculated effective half-life T1/2eff, min: 21.7 h
[2]; [4]
  Calculated effective half-life T1/2eff, max: 74.5^a h
  Calculated effective half-life T1/2eff, mean: 38.4^a h
  Calculated effective half-life T1/2eff, min: 25.7^a h
[2]; time point 2 ± 0.3 h p. i.
  Dose rate (measured at a distance of 2 m), max: 5.0 μSv/h
